Reference: paper PMC7667655, “Targeted Covalent Inhibition of Plasmodium FK506 Binding Protein 35” (ACS Medicinal Chemistry Letters, 2020)
In brackets after ≈: the same amount, converted by molar mass. Like-named read-outs stand apart in the source and are kept apart here.

Experiments:
[1] = biological target: T1, FBD35 (PfFKBP35 binding domain) (Plasmodium falciparum, UniProt Q8I4V8); experiment: Fluorescence polarization competition, FBD35
T1 construct: FKBP35 Q5 -A128; 6His-SUMO (N, cleaved yes); made in house; host or cells: E. coli BL21 DE3

[2] = biological target: T2, nLuc-tagged FKBP12 (Homo sapiens, UniProt P62942); experiment: NanoBRET cellular target engagement, nLuc-FKBP12; type: cell-based
T2 construct: full length Plasmodium falciparum FKBP35 and human FKBP12 DNA were; expressed in transfected cells

[3] = biological target: T3, FKBP12 (Homo sapiens, UniProt P62942); experiment: Fluorescence polarization competition, FKBP12; type: binding
T3 construct: 6His-SUMO (N, cleaved yes); made in house; host or cells: E. coli (identical protocol to FBD35, BL21 DE3)

[4] = Plasma stability assay, mouse; type: in vitro ADME; conditions: percent remaining, 1 µM, 37 °C, 5 hours
Description: (§1) In 96-well round-bottom plates, sorbitol -synchronized cultures of ring-stage NF54 P. falciparum parasites were established in triplicate and treated with varying concentrations of the inhibitors (25-0.0038 μM) serially diluted in complete medium. Parasite proliferation rates were analyzed after 72 h using the Renilla-Glo Luciferase Assay, and luminescence was measured using the GloMax® Discover Microplate Reader. EC 50 values were obtained from corrected dose-response curves using GraphPad Prism (version 5; GraphPad Software). Data represent the mean % luminescence relative to 5% DMSO-treated (vehicle, 100% growth) and 100 nM chloroquine-treated (no growth) controls.
(§2) In black, clear-bottom 96-well plates (No. 3904 Corning Life Sciences), HEK293T cells were plated at 2x10^5 cells/mL in DMEM high glucose, pyruvate media (ThermoFisher Scientific, cat. 11995073) supplemented with 10% FBS and 1% pen -strep (100 μL final volume). Cells were incubated overnight at 37°C, 5% CO2. Using a Tecan D300e digital dispenser, cells were dosed in triplicate […]
(§3) concentration, 100 mM stock in DMSO) and Carfilzomib (10 µM to 4.6 nM final concentration, 10 mM stock in DMSO) normalizing DMSO to 0.25%. Cells were then incubated at 37 °C, 5% CO2 for 72 hours. Following incubation, cells were treated with 70 µL CellTiter-Glo® Luminescent Cell Viability Assay Reagent (Promega, cat. G7570) and incubated in the dark at room temperature for 30 minutes. Plates were read using an EnVision Multimode Plate Reader (PerkinElmer). Cell viability data was normalized to DMSO controls and analyzed in GraphPad Prism 8 by fitting the data to “[Inhibitor] vs. normalized response – variable slope” model to obtain the curves.
(§4) Each compound was prepared in duplicate at 1 µM final concentration (0.2% DMSO) in human or mouse plasma (Aldrich). Samples were incubated at 37 °C for 5 hours with mixing at 350 rpm on an orbital shaker. Aliquots of each sample were taken at time zero and following 5 hours. Each sample was quenched by adding acetonitrile in a 3:1 ratio and further diluting with 50 µl of PBS.
(§5) After quenching, samples were centrifuged to pellet precipitated partic ulates and an aliquot of supernatant was diluted 1:1 with water. The resulting solution was analyzed by UPLC -MS/MS with compounds detected by MRM detection on a triple quadrupole mass spectrometer. The ratio of compound peak areas at 0 and 5 hours were use d to calculate the percent remaining.

[5] = Plasma stability assay, human; type: in vitro ADME; conditions: percent remaining, 1 µM, 37 °C, 5 hours
Description: as §1, §2, §3, §4, §5

[6] = biological target: T1, FBD35 (PfFKBP35 binding domain); experiment: Differential scanning calorimetry, FBD35; conditions: read-out: FBD35 ΔTM
[7] = biological target: T4, nLuc-tagged full length PfFKBP35 (Plasmodium falciparum, UniProt Q8I4V8); experiment: NanoBRET cellular target engagement, nLuc-FKBP35; type: cell-based
T4 construct: nanoluciferase-tagged (nLuc) full length PfFKBP35 or nLuc-tagged FKBP12; expressed in transfected cells

[8] = tested on: NF54 P. falciparum parasites; experiment: P. falciparum strain NF54 growth-inhibition assay; type: cell-based; conditions: Plasmodium falciparum; luciferase reporter NF54 line, 72 h
Description: Figure 6 P. falciparum strain NF54 growth-inhibition assay. […] Proliferation was measured by luminescence after a complete life-cycle and normalized to DMSO (100%) and chloroquine (100 nM, 0%). (B) Structural differences between synthetic ligands and compound IC50s (μM).
Substrate and Extracellular NanoLuc® Inhibitor (Promega, cat. N2160) were diluted at 1:166 and 1:500, respectively, in Opti -MEM I Reduced Serum Media. 25 µL of this solution was added to each well and plate was read immediately using an EnVision Multimode Plate Reader (PerkinElmer). The BRET ratio was calculated using the following formula:
BRET ratio = acceptorsample – acceptorno tracer control donorsample donorno tracer control
NanoBRET Target Engagement Assay (384-well)
HEK293T cells stably expressing either nLuc-FKBP12 or nLuc-FKBP35 were plated at 0.2×10^6 cells/mL in white, clear -bottom 384-well plates (Sigma Aldrich) in Opti -MEM I Reduced Serum Media (ThermoFisher Scientific) using a Mutidrop Combi Reagent Dispenser (ThermoFisher Scientific). Cells were incubated overnight at 37 °C, 5% CO 2. Using a Tecan D300e, the Rap-Gly-BDP tracer was added to cells to 1 µM. Plates were shaken at 700 RPM on an orbital plate shaker and incubated at 37 °C, 5% CO 2 for 10 minutes. Test compounds were added at the indicated concentrations using a Tecan D300e. Plates were shaken at 700 RPM on an orbital plate shaker and incubated at 37 °C, 5% CO 2 for 2 hours. NanoBRET Nano -Glo Substrate and Extracellular NanoLuc® Inhibitor (Promega, cat. N2160) were diluted at 1:166 and 1:500, respectively, in Opti-MEM I Reduced Serum Media. 10 µL of this solution was added to each well and plate was read immediately using an EnVision Multimode Plate Reader (PerkinElmer). The BRET ratio was calculated using the above formula.
Parasite Culture and Inhibition
NF54 P. falciparum parasites constitutively expressing Renilla luciferase (RLuc) and Blasticidin-S deaminase under the PfHsp86 5’ and PfHRP2 3‘ regulatory sequences integrated in the cg6 chromosomal locus 4 were maintained continuous ly in media consisting of human erythrocytes at 2% haematocrit (O+) resuspended in RPMI 1640 (Gibco® 31800022) supplemented with 5% Albumax (Gibco® 11021045; complete medium) and 2.5 µg/mL of Blasticidin (RPI Corp B12150-0.1) in a gas mixture consisting of 5% CO2, 1% O2, and 94% N2 at 37 °C (Trager and Jensen 2005).
Parasitemia was determined every 48 h through microscopic examination of thin blood smears fixed in methanol, stained with 10% Giemsa solution, and sub-cultured to 0.5-1% parasitaemia.
Compound susceptibility assays
as §1, §2
concentration, 100 mM stock in DMSO) and Carfilzomib (10 µM to 4.6 nM final concentration, 10 mM stock in DMSO) normalizing DMSO to 0.25%. Cells were then incubated at 37 °C, 5% CO2 for 72 hours. Following incubation, cells were treated with 70 µL CellTiter-Glo® Luminescent Cell […]

[9] = biological target: T3, FKBP12; experiment: Differential scanning calorimetry, FKBP12; type: binding; conditions: compound 40 µM
[10] = biological target: T5, FKBP35 (Plasmodium falciparum, UniProt Q8I4V8); experiment: Mass spec of FKBP35 incubated with D44 analogs; type: biochemical
T5 construct: FKBP35 Q5 -A128; 6His-SUMO (N, cleaved yes); made in house; host or cells: E. coli BL21 DE3
Description: Prior to DSC experiments 400 µL of the reaction mixture was saved f or mass spectrometry analysis. For intact mass analysis, 100 µL of the reaction mixture was diluted to 0.05 mg/mL and injected onto a ZORBAX StableBond 300 C8 HPLC column [2.1 x 100 mm, 3.5 µm (Agilent)] on an Agilent HPLC binary pump system. Initial m obile phase conditions were 15% acetonitrile/85% water, both containing 0.1% formic acid. Protein was desalted for 2 minutes and eluted from the column with a gradient of 15% to 75% acetonitrile over 10 min. Intact mass measurement was performed on a Q Exa ctive mass spectrometer with an ESI source (Thermo Scientific). Source parameters: spray voltage, 3500 V; capillary temperature, 340°C; sheath gas, 35; auxiliary gas, 5; (gas flows in arbitrary units of the ESI source). MS detection was performed using a Full MS scan acquisition method, scanning over the range 800 -2100 m/z. BioPharma Finder v 3.0 (Thermo Fisher Scientific) was used for data acquisition and analysis. DSC and mass spectrometry experiments were performed in parallel.
For chymotrypsin digestion , 20 µL of the reaction mixture was added to 20 µL of fresh denaturing solution (0.1 M urea, 0.1 M NaCl, adjusted to 10 ml with 50 mM Tris Buffer pH 8.0). Then 10 µL of 10 mM TCEP was added to the mixture, which was then incubated at 37 °C for 60 minutes. To prevent modification of free thiol groups in FKBP proteins during digestion, 4 µL of 50 mM iodoacetamide (IAA, Sigma No. A3221) was added followed by incubation at room temperature in the dark for 30 minutes. After the incubation, the reaction mixture w as brought up to 200 µL with 140 µL of 10 mM Trizma pH 7.5. The peptide fragments were generated by adding chymotrypsin at a molar ratio of 1 chymotrypsin : 100 FKBP protein and incubated overnight at 37 °C. The reaction was quenched by adding 10 µL of form ic acid (~5% of total volume) followed by a few seconds of a vortex pulse.
Samples were analyzed using a Thermo Fisher Scientific Vanquish UHPLC connected to a Q Exactive HF mass spectrometer with a HESI source. Source parameters were as follows: spray voltage, 3500 V; capillary temperature, 300 °C; sheath gas flow, 45; auxiliary gas flow; 10; sweep gas flow, 1; (gas flows in arbitrary units of the HESI source). Digested samples were injected onto an ACQUITY UPLC BEH C18 Column [130Å, 1.7 µm, 2.1 mm X 50 mm (Waters)] held at 45 °C and desalted for 30 s with 5% acetonitrile/95% water, both containing 0.1% formic acid. Peptides were separated using a 5% to 65% acetonitrile gradient over 6.5 min. MS detection was performed using a Full MS/ddMS2 (Top 5) acquisi tion method, scanning over the range 300 -1800 m/z. […]
DSC thermograms were recorded in MicroCal DSC from Malvern with an autosampler. […]

[11] = Cell viability assay (CellTiter-Glo); type: cell-based; conditions: human
Description: as §1, §2, §3
Each compound was prepared in duplicate at 1 µM final concentration (0.2% DMSO) in human or mouse plasma (Aldrich). […]
After quenching, samples were centrifuged to pellet precipitated partic ulates and an aliquot of supernatant was diluted 1:1 with water. The resulting solution was analyzed by UPLC -MS/MS with compounds detected by MRM detection on a triple quadrupole mass spectrometer. […]

[12] = PBS solubility; conditions: pH 7.4
[13] = tested on: Plasmodium cultured parasites; conditions: Figure 1; read-out: IC50 in blood-stage antiplasmodium assays; cited from earlier work

T1 sequence (Q8I4V8 5-128): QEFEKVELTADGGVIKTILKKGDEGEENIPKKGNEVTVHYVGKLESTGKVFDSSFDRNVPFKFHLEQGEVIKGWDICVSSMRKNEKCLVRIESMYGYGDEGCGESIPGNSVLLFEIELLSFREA
T5 sequence (Q8I4V8 5-128): as above
T3 sequence (P62942 whole entry): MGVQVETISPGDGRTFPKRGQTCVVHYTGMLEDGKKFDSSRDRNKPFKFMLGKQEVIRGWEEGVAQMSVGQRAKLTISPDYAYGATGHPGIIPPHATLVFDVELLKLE
T4 sequence (Q8I4V8 whole entry): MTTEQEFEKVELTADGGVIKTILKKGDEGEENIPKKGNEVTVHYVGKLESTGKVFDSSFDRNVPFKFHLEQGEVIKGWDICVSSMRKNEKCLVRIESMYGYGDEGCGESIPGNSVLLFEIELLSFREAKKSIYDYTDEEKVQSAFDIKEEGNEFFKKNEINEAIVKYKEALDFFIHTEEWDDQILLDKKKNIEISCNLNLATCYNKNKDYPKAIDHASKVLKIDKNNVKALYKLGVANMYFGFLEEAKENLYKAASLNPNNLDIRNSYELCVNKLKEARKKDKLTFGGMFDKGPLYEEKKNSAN
T2 sequence (P62942 whole entry): as the sequence (P62942 whole entry) above

## CCC(=O)OCC(C)(C)C(=O)C(=O)N1CCCC[C@H]1C(=O)O[C@H](CCc1ccc(OC)c(OC)c1)c1ccccc1 [2d]
[1]
  IC50: 0.099 µM
[2]
  IC50: 0.454 µM
[3]
  IC50: 0.043 µM
[4]
  Plasma Stability (mouse): 0%
[5]
  Plasma Stability (human): 1%
[6]
  ΔTm at 40 µM: 3 °C
[7]
  IC50: 1.31 µM
[8]
  IC50: 9.9 µM
[9]
  ΔTm at 40 µM: 5.9 °C

## C=CC(=O)NCc1ccccc1NC(=O)CSc1nc2cccnc2[nH]1 [D44a]
[10]; incubation temp 37 °C
  % Abundance of modified FKBP35: 4.1%
[10]; incubation temp RT
  % Abundance of modified FKBP35: 11.5%

## C=CC(=O)NCc1ccc(NC(=O)CSc2nc3cccnc3[nH]2)cc1 [D44c]
[10]; incubation temp 37 °C
  % Abundance of modified FKBP35: 37.0%
[10]; incubation temp RT
  % Abundance of modified FKBP35: 17.1%

## CO[C@H]1C[C@@H]2CC[C@@H](C)[C@@](O)(O2)C(=O)C(=O)N2CCCC[C@H]2C(=O)O[C@H]([C@H](C)C[C@@H]2CC[C@@H](O)[C@H](OC)C2)CC(=O)[C@H](C)/C=C(\C)[C@@H](O)[C@@H](OC)C(=O)[C@H](C)C[C@H](C)/C=C/C=C/C=C/1C [Rapamycin, reference compound]
[11]; HEK293T cells, HEK293T, 72 hour treatment, read-out: IC50 cell viability
  IC50 at 72 h: 63 µM
[8]
  IC50: 1.1 µM

## CCC(C)(C)C(=O)C(=O)N1CCCC[C@H]1C(=O)O[C@H](CCc1ccc(OC)c(OC)c1)c1cccc(OCC(=O)O)c1 [SLFb, reference compound]
[1]
  IC50: 0.761 µM
[2]; NanoBRET, 2 h incubation
  tracer displacement (in words), FKBP12: markedly reduced probe displacement
[3]; fluorescence polarization, competitive inhibition model, read-out: FKBP12 IC50
  IC50: 0.027 µM
[6]
  ΔTm at 40 µM: 2.8 °C
[7]; NanoBRET, 2 h incubation
  tracer displacement (in words), FKBP35: markedly reduced probe displacement
[8]
  IC50: 33.7 µM
[12]
  solubility: 59 µM (≈ 34.4 µg/mL)
[9]
  ΔTm at 40 µM: 6.6 °C

## CC[C@H]1CN(Cc2ccccn2)C(=O)[C@@H]2CCC[C@H]1N2S(=O)(=O)c1cc(Cl)cc(Cl)c1 [[4.3.1]-ABS]
[13]
  IC50: 2.3 µM

## CC(C)C[C@H](NC(=O)[C@H](CCc1ccccc1)NC(=O)CN1CCOCC1)C(=O)N[C@@H](Cc1ccccc1)C(=O)N[C@@H](CC(C)C)C(=O)[C@@]1(C)CO1 [carfilzomib]
[11]
  IC50 at 72 h: 0.015 µM
